Test results taken from the supplement of paper PMC10307832.

Columns and labels:
Experiment in all cases: relative viability (nuclei count vs DMSO), 5 days (fraction); higher = more cells survive
[1] = compound: CCc1cnn2c(NCc3ccc[n+]([O-])c3)cc(N3CCCC[C@H]3CCO)nc12 [Dinaciclib] + CS(=O)(=O)N1CCN(Cc2cc3nc(-c4cccc5[nH]ncc45)nc(N4CCOCC4)c3s2)CC1 [Pictilisib] (partner 1 µM)
Outline: (§1)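 A single step with final 0.05% Triton X-100, 1% formaldehyde and 1 ug/ml Hoechst fixed the cells and stained nuclei 5 days after treatment. Lung cancer cell lines in 1536-well plates had been treated by pin tool the day after seeding with one drug alone or a fixed anchor-drug dose plus five library-drug doses (not always all listed) in √10 steps, and nuclei were counted on 4× images. Relative viability is the ratio of nuclei in treated wells to nuclei in vehicle wells, taken as the median of duplicate plates.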

[2] = compound: CCc1cnn2c(NCc3ccc[n+]([O-])c3)cc(N3CCCC[C@H]3CCO)nc12 [Dinaciclib] + Cc1cc(Nc2cc(N3CCN(C)CC3)nc(Sc3ccc(NC(=O)C4CC4)cc3)n2)n[nH]1 [Tozasertib] (partner 0.1 µM)
Outline: as §1

[3] = compound: CCc1cnn2c(NCc3ccc[n+]([O-])c3)cc(N3CCCC[C@H]3CCO)nc12 [Dinaciclib] + Cc1nc(NC(=O)N2CCC[C@H]2C(N)=O)sc1-c1ccnc(C(C)(C)C(F)(F)F)c1 [Alpelisib] (partner 2 µM)
Outline: as §1

[4] = compound: CCc1cnn2c(NCc3ccc[n+]([O-])c3)cc(N3CCCC[C@H]3CCO)nc12 [Dinaciclib] + N=C(N)NC(=N)NCCc1ccccc1 [Phenformin] (partner 250 µM)
Outline: as §1

[5] = compound: CCc1cnn2c(NCc3ccc[n+]([O-])c3)cc(N3CCCC[C@H]3CCO)nc12 [Dinaciclib] + O=C(CCCCCCC(=O)Nc1ccccc1)NO [Vorinostat] (partner 1 µM)
Outline: as §1

Cell Line	relative viability ([1]; first compound 0.009487 µM)	relative viability ([1]; first compound 0.03 µM)	relative viability ([1]; first compound 0.09487 µM)	relative viability ([1]; first compound 0.3 µM)	relative viability ([2]; first compound 0.009487 µM)	relative viability ([2]; first compound 0.03 µM)	relative viability ([2]; first compound 0.09487 µM)	relative viability ([2]; first compound 0.3 µM)	relative viability ([3]; first compound 0.009487 µM)	relative viability ([3]; first compound 0.03 µM)	relative viability ([3]; first compound 0.09487 µM)	relative viability ([3]; first compound 0.3 µM)	relative viability ([4]; first compound 0.009487 µM)	relative viability ([4]; first compound 0.03 µM)	relative viability ([4]; first compound 0.09487 µM)	relative viability ([4]; first compound 0.3 µM)	relative viability ([5]; first compound 0.009487 µM)	relative viability ([5]; first compound 0.03 µM)	relative viability ([5]; first compound 0.09487 µM)	relative viability ([5]; first compound 0.3 µM)
NCI-H2405	0.572	0.226	0.227	0.177	0.619	0.2	0.213	0.208	0.876	0.22	0.208	0.184	0.417	0.253	0.223	0.186	0.813	0.211	0.217	0.201
NCI-H3122	0.385	0.178	0.134	0.13	0.169	0.091	0.0926	0.0829	0.489	0.157	0.119	0.15	0.172	0.101	0.103	0.106	1.05	0.095	0.0953	0.0902
PC-3 [JPC-3]	0.556	0.578	0.262	0.233	0.889	0.745	0.274	0.215	0.99	0.899	0.362	0.21	0.492	0.476	0.326	0.204	0.915	0.56	0.277	0.323
PC-14	0.436	0.145	0.0318	0.0249	0.454	0.0566	0.0448	0.038	0.947	0.515	0.0838	0.0509	0.279	0.0631	0.0459	0.0379	0.737	0.251	0.0426	0.0456
RERF-LC-KJ	0.448	0.19	0.124	0.117	0.45	0.18	0.179	0.167	0.826	0.41	0.154	0.161	0.35	0.223	0.224	0.185	0.652	0.373	0.141	0.135
SK-LU-1	0.57	0.167	0.155	0.152	0.329	0.132	0.131	0.119	0.637	0.197	0.18	0.194	0.394	0.11	0.133	0.129	0.65	0.241	0.233	0.208
SK-MES-1	0.381	0.24	0.128	0.128	0.777	0.157	0.156	0.139	0.757	0.618	0.119	0.117	0.533	0.171	0.147	0.153	1.23	0.156	0.161	0.148
SW 1573	0.452	0.225	0.0748	0.064	0.141	0.0738	0.0542	0.0806	0.659	0.432	0.0931	0.106	0.303	0.0685	0.077	0.0659	0.444	0.071	0.0779	0.0742
UMC-11	0.217	0.145	0.132	0.136	0.2	0.215	0.202	0.173	0.285	0.147	0.135	0.158	0.214	0.197	0.192	0.185	0.229	0.174	0.167	0.167
